Test results reported in patent publication US6544541B1, “Devices and compounds for treating arterial restenosis” (Cardiovascular Solutions, Inc., priority 1999, dated 2003).

Tests used:
[1] = system: H4IIE hepatoma cells; assay: DNA synthesis (3H-thymidine incorporation) in H4IIE cells; type: cell-based; conditions: H4IIE cells
Procedure: Incorporation of uridine or thymidine was used to define the change in rate of […] synthesis, respectively, in response to a mitogen such as insulin. Specifically, quiescent H4IIE cells were prepared by placing the cultures (in 24-well dishes) into serum-free a-minimal essential medium for 3 days. It is of note that the normal growth media for H4IIE cells is α-MEM containing 10% fetal bovine serum (FBS). After reaching quiescence, the cells were stimulated with 1 μM insulin and incubated for either 6 hours or 24 hours in the presence of 1 μCi/ml ^3H-uridine or ^3H-thymidine, respectively. Cells were subsequently lysed with detergent and the nucleic acids precipitated with 5% trichloroacetic acid. The precipitated material was collected on glass fibre filters and the radioactive content measured by scintillation counting. […] Furthermore, while complete inhibition of DNA synthesis by MIBG is obtained at approximately 20 μM, higher concentrations decrease basal DNA synthesis below control levels.

[2] = system: H4IIE cells; assay: lactate dehydrogenase (LDH) release toxicity assay; type: cell-based; conditions: 96 hours; FIG. 5
Procedure: To address the issue of MIBG toxicity, lactate dehydrogenase (LDH) release was measured after incubation with MIBG or MIBA. Quiescent H4IIE cells were prepared in 96-well dishes and treated with various concentrations of either MIBG or MIBA for 96 hours. To quantify the release of LDH from the cells, which only occurs if the cells are damaged or killed by the treatment, 100 μl of culture medium was transferred to a fresh dish. To this was added 100 μl of dye/catalyst mixture (Boehringer Mannheim cytotoxicity detection kitTM), and the samples were subsequently incubated for 30 minutes at 37° C. Absorbance of the solution was monitored at 490 nm. The colour intensity indicates the relative LDH content in the test samples. […] As a consequence, it is speculated that changes in LDH release may be coupled to non-toxic and reversible alterations in mitochondrial metabolism or membrane integrity as a result of MIBG treatment.

[3] = system: H4IIE hepatoma cells; assay: flow cytometry, bromodeoxyuridine incorporation in proliferating cells; type: cell-based; conditions: 25 μM MIBG, 48 hours; FIG. 4
Procedure: Additional verification that MIBG blocked cell proliferation was obtained using flow cytometry analysis. Proliferating H4IIE cells (<40% confluent) were incubated for 48 hours in the presence or absence (untreated control or containing MIBA) of 25 μM MIBG. The cells were pulse labeled with bromodeoxyuridine (BrdU) 2 hours before harvest to label replicating DNA. Cells were released by trypsinization, collected by centrifugation and permeabilized with Triton X-100 (1%). Replicated DNA was labeled with an anti-BrdU antibody conjugated to FITC (fluorescein isothiocyanate), while total DNA was labeled with propidium iodide. The FITC and propidium iodide labels were detected at 514 nm and 600 nm, respectively, with a Coulter flow cytometer™ (excitation wavelength 488 nm), and number of cells containing these fluors were quantified. The data were plotted as cells with propidium iodide versus cells with BrdU. […] To summarize, the results described above indicate that MIBG is a potent inhibitor of cell proliferation. Furthermore, the cellular process affected by MIBG is active throughout the cell cycle. This conclusion is based on the fact that there is no accumulation of cells at a specific phase of the cell cycle. In addition, it is of note that there is no apparent decrease in cell number or an increase in smaller cells, both characteristics of cell death.

[4] = system: porcine coronary artery smooth muscle cells
[5] = system: cell growth; conditions: cited from earlier work
[6] = system: Friend erythroleukemia cells; assay: Friend cell differentiation; type: cell-based
From the text: It is of note however that MIBG acts at a point in the differentiation pathway that is distinct from 3-aminobenzamide.

[7] = system: porcine femoral artery; assay: balloon angioplasty of the porcine femoral artery in vivo; parameters: species or system pigs; conditions: in vivo femoral angioplasty, relative to MIBG; FIG. 25
From the text: To test the effectiveness of MIBG under in vivo conditions, this compound was applied to the femoral artery after balloon angioplasty. This model provided a means of testing both MIBG and the method of application. Specifically, male castrated farm pigs (25-30 kg) were anaesthetized and maintained on isoflurane throughout the procedure. With the pig in a supine position, the left femoral artery was exposed from the bifurcation of the femoral and superficial femoral arteries to the point of insertion of the femoral artery into the groin. A mixture of nitroglycerin and papaverine was applied to the vessel and the area was covered with a saline-soaked sponge to keep the tissues moist. The right femoral artery was also exposed, treated and covered with a sponge. The left femoral was then clamped at both groin insertion (proximal) and bifurcation (distal) points, and an arteriotomy made at the bifurcation. The balloon (6.0×20 mm) was inserted through the arteriotomy in a retrograde manner (i.e. toward the groin) to a position 20 mm from the arteriotomy and the proximal clamp removed. The balloon was inflated for 1 minute, deflated and carefully removed, and the arteriotomy was closed with 6.0 ProleneTM suture. MIBG in combination with a biocompatible glue, in this example, Tisseel®, was applied to the surface of the vessel extending from the arteriotomy to the proximal region past the site of balloon inflation. The fibrin glue ensured that MIBG slowly diffused into the vessel. Furthermore, the fibrin glue helps to retain MIBG at the site for several days. The right femoral was handled as described above. […] The extent of restenosis was subsequently monitored by morphometry. […] Digital images were captured with a DAGE-MTI CCD camera and analyzed with SigmaScan Software. The neointimal and medial areas are quantified and used to calculate the neointimal index: neointimal area/medial area. […] Even though the vehicle cannot be detected after 14 days, we conclude that it remains for the minimum period necessary.

[8] = system: porcine coronary arteries; assay: coronary artery organ culture after balloon angioplasty (neointimal index); conditions: organ culture, relative to MIBG; FIG. 24
From the text: Although smooth muscle cell cultures can be used to determine the ability of a compound to inhibit proliferation, these cells are not good indicators of a compound's ability to prevent restenosis. This statement stems from the fact that several processes, including cell migration, proliferation and synthesis of ECM degrading enzymes, must be coordinately activated in order for restenosis to occur. A novel organ culture system has therefore been developed in order to test the effectiveness of MIBG and other compounds at preventing restenosis (Wilson et al, 1999, Cardiac Res 42: 761-772). In brief, hearts are transported from the abattoir to the laboratory on ice. The left descending coronary artery is exposed and a balloon catheter is inserted past the first bifurcation. The balloon is inflated, and after 1 minute is deflated and withdrawn. The damaged region (approximately 20 mm in length) is excised, cut into 4 pieces of 5 mm and each piece is placed into an individual well of a culture dish. These segments can be maintained in media containing 20% serum for up to 21 days. Upon harvest of the tissue, typically after 14 days, the vessel segments are placed into resin for histological analysis. Sections are prepared from vessel segments after removal of the first 1.5 mm. […] This file is imported into SigmaScan™, and staining in the areas of the intimal and medial layers quantified. […]

[9] = system: smooth muscle cells; assay: Boyden chamber smooth muscle cell migration in response to Angiotensin II; type: cell-based; conditions: 20 μM; 10 μM Angiotensin II in lower compartment; FIG. 17
Procedure: Specifically, smooth muscle cells were seeded into the upper chamber of a Boyden chamber, which consists of two compartments that are separated by a permeable membrane. […] Specifically, migration to the lower compartment was determined by counting cells on the underside of the membrane. Data are presented as means ± standard error for six independent determinations.

[10] = system: smooth muscle cells derived from human arterial conduits; assay: DNA synthesis and cytotoxicity in human smooth muscle cells; conditions: human cells; FIG. 26B
[11] = human studies; cited from earlier work

For NCc1cccc(I)c1 [MIBA, meta-iodobenzylamine], the “inhibition of DNA synthesis (thymidine incorporation)” value [1] was “does not inhibit DNA synthesis”, the “concentration at which increased LDH release is detectable” value [2] was at least 200 µM and the “bromodeoxyuridine incorporation (DNA synthesis)” value [3] was “identical to those observed in the control cells”.

In the case of N=C(N)NCCCCN [agmatine], the “inhibition of DNA synthesis in response to serum treatment” value [4] is reported as “does not inhibit DNA synthesis”.

In the case of benzylguanidine [BG], the “inhibition of DNA synthesis (thymidine incorporation)” value [1] is reported as “did not inhibit thymidine incorporation” and the “inhibition of thymidine incorporation” value [4] is reported as “did not inhibit thymidine incorporation”.

In the case of NC(=O)c1cccc(N)c1 [3-aminobenzamide], the “concentrations at which cell growth is inhibited” value [5] is given as at least 1 mM and the “effect on Friend cell differentiation” value [6] is given as “inhibits the commitment phase”.

With CC(C=NNC(=N)N)=NNC(=N)N [methylGAG, methylglyoxal bis-(guanylhydrazone)] the “effectiveness in preventing cell growth” value ([1]; relative to MIBG) was “as effective as MIBG”, the “effectiveness in preventing neointimal formation” value [7] was “as effective as MIBG” and the “effectiveness in preventing neointimal formation” value [8] was “as effective as MIBG”. The “smooth muscle cell migration” value [9] was “inhibited smooth muscle cell migration”, the “inhibition of thymidine incorporation, potency relative to MIBG” value [4] was “slightly more potent inhibitor than MIBG” and the “toxicity relative to MIBG” value [4] was “less toxicity”. For the same compound, the “effectiveness in preventing cell growth” value ([4]; smooth muscle cells, relative to MIBG) was “as effective as MIBG”, the “toxicity relative to MIBG” value [10] was “less toxicity” and the “threshold of tolerance relative to MIBG” value [11] was “higher threshold of tolerance”.
